The values below come from US4610981A, “N-[(1H-imidazol-1-yl) and (1H-1,2,4-triazol-1-yl)-alkyl]benzenesulfonamides and thromboxane synthetase/antihypertensive compositions” (priority 1985, dated 1986).

One series addresses T1, thromboxane synthetase (Rattus norvegicus, UniProt P49430).
T1 construct: The platelets were isolated by centrifuging the PRP for 10 minutes; endogenous in cells; host or cells: washed platelets from arterial blood of Okamoto-Aoki spontaneously hypertensive rats (animals from Taconic Farms)
T1 sequence (P49430 1-533): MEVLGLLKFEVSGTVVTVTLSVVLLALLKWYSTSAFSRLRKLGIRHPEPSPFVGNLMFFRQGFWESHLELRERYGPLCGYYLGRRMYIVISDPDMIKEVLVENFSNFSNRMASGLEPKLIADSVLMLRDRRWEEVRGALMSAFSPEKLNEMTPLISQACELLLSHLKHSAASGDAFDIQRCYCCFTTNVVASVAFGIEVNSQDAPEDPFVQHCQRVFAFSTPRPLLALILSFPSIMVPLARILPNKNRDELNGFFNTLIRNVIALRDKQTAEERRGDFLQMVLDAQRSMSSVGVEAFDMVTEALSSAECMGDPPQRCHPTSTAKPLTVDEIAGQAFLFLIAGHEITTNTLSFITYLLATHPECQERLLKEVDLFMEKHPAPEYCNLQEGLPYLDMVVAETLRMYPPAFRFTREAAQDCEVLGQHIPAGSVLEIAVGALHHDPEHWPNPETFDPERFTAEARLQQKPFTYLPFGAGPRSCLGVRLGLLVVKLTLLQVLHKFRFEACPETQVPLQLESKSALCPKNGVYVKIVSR
The experiment in a line: Inhibition of thromboxane (TXA2) formation in SHR platelets, TXB2 measured by radioimmunoassay. The format is cell-based, Okamoto-Aoki spontaneously hypertensive rats (SHR). The settings on record: read-out: % Inhibition (of TXB2 formation). The protocol: The inhibition of thromboxane (TXA2) formation was studied by determining the concentration of thromboxane B2 (TXB2), the stable hydrolysis product of TXA2. […] The blood was diluted with 3 ml cold saline and centrifuged at room temperature for 15 minutes at 460×g. The platelet rich plasma (PRP) was separated. The platelets were isolated by centrifuging the PRP for 10 minutes at 1060×g and were washed in 4 ml cold oxygenated Krebs phosphate buffer, pH 7.4. The chilled platelets recovered from centrifuging at 800×g for 10 minutes were resuspended in oxygenated Krebs phosphate buffer and diluted to contain 4.5-6.0×10^4 platelets/μl. Assay samples, prepared on ice, contained 200 μl platelet suspension, 50 μl saline, and 50 μl vehicle or drug under study. The samples were incubated for 10 minutes at 37° C. in a metabolic shaker. The reaction was terminated by immersing the tubes in an ice bath and adding 50 μl of 0.5M citric acid. The samples were centrifuged for 10 minutes in a refrigerated centrifuge and the supernatants thus obtained were decanted and stored at -20° C.

Series [1] in a line: Hypotensive activity in spontaneously hypertensive rats, mean arterial blood pressure (Chan and Poorvin). The settings on record: oral gavage, 100 mg/kg or less, two doses 24 hours apart, measured 28 hours after initial dose; average MABP of rats used 160±1.5 mm Hg. The format is in vivo, spontaneously hypertensive rats of the Okamoto strain. The protocol:
The novel compounds of the present invention also are active antihypertensive agents and were tested for hypotensive activity by the method of P. S. Chan and D. Poorvin, Clinical and Experimental Hypertension, 1(6), 817-830 (1979). Male, 16 week old, spontaneously hypertensive rats of the Okamoto strain, from Taconic Farms, Germantown, N.Y., having an average mean arterial blood pressure of 160±1.5 mm of mercury are used in the test. One to three rats are used per test compound. A rat is dosed by gavage with a test compound, suspended in 2% pre-boiled starch at a concentration of 50 mg/ml, at a dose of 100 mg/kg of body weight or less, with 0.9% sodium chloride loading at a dose of 25 ml/kg of body weight. A second identical dose of the test compound, without sodium chloride loading, is given 24 hours later. At 28 hours after the initial dose the mean arterial blood pressure is measured by the method of Chan and Poorvin, vide supra. The procedure is repeated in a second and third rat when necessary.

The conditions of series [2]: guinea pigs; literature; cited from earlier work.
For series [3] the following is noted: rabbits; literature; cited from earlier work.
The conditions of series [4]: canines; J. Cardiovascular Pharmacology, 4, 129 (1982); cited from earlier work.
Setting [5] is: dose 10^-4 M, SHR washed platelets, 10 minutes at 37° C.

Where a name gives a salt, the structure may show the parent alone. Read-outs that look alike come from different tables or passages of the source.

As usually defined, the inhibition is the change of the read-out against control, counted positive when it falls. On to `O=S(=O)(NCCCCCCCCn1ccnc1)c1ccc(Cl)cc1` [4-Chloro-N-[8-(1H-imidazol-1-yl)octyl]benzenesulfonamide], for which the inhibition at 100 µM at thromboxane synthetase (setting [5]) was determined as 93%. Besides, the “MABP in mm Hg” value in series [1] is 132 mm Hg.
For the compound `O=S(=O)(NCCCCn1ccnc1)c1ccc(Br)cc1` [4-Bromo-N-[4-(1H-imidazol-1-yl)butyl]benzenesulfonamide], the inhibition at 100 µM at thromboxane synthetase (setting [5]) worked out at 91%.
As to `O=S(=O)(NCCn1ccnc1)c1ccc(Br)cc1` [4-Bromo-N-[2-(1H-imidazol-1-yl)ethyl]benzenesulfonamide], the “MABP in mm Hg” value in series [1] was 125 mm Hg.
As for `O=S(=O)(NCCCCCn1ccnc1)c1ccc(Cl)cc1` [4-Chloro-N-[5-(1H-imidazol-1-yl)pentyl]benzenesulfonamide], in series [1], the “MABP in mm Hg” value is recorded as 119 mm Hg.
As for `COc1ccc(S(=O)(=O)NCCCn2ccnc2)cc1` [N-[3-(1H-Imidazol-1-yl)propyl]-4-methoxybenzenesulfonamide], on thromboxane synthetase (setting [5]), the inhibition at 100 µM is 100%.
With `O=S(=O)(NCCCn1cncn1)c1ccc(Cl)cc1` [4-Chloro-N-[3-(1H-1,2,4-triazol-1-yl)propyl]benzenesulfonamide], in series [1], the “MABP in mm Hg” value was determined as 127 mm Hg.
For `O=S(=O)(NCCCCn1ccnc1)c1ccc(Cl)cc1` [4-Chloro-N-[4-(1H-imidazol-1-yl)butyl]benzenesulfonamide], the inhibition at 100 µM on thromboxane synthetase (setting [5]) worked out at 94%.
The same measure, in the same setting: under `O=S(=O)(NCCCCn1ccnc1)c1ccccc1` [N-[4-(1H-Imidazol-1-yl)butyl]benzenesulfonamide] stands 93%.
For `O=S(=O)(NCCCn1ccnc1)c1ccc(Br)cc1` [4-Bromo-N-[3-(1H-imidazol-1-yl)propyl]benzenesulfonamide], the inhibition at 100 µM at thromboxane synthetase came to 100%. Moreover, the “MABP in mm Hg” value in series [1] is listed as 126 mm Hg.
In the case of `O=S(=O)(NCCCn1cncn1)c1ccccc1` [N-[3-(1H-1,2,4-Triazol-1-yl)propyl]benzenesulfonamide], the inhibition at 100 µM at thromboxane synthetase (setting [5]) stood at 67%.
Turning to `O=S(=O)(NCCc1cccnc1)c1ccc(Cl)cc1` [4-Chloro-N-[2-(3-pyridyl)ethyl]benzenesulfonamide], the inhibition at 100 µM at thromboxane synthetase (setting [5]) was 90%. In series [1], the “MABP in mm Hg” value was 109 mm Hg.
The matching figures for `CC(=O)Nc1ccc(S(=O)(=O)NCCCCn2ccnc2)cc1` [N-[4-[[[4-(1H-imidazol-1-yl)butyl]amino]sulfonyl]phenyl]acetamide]: 100% and 116 mm Hg.
As to `O=S(=O)(NCCCn1ccnc1)c1ccc(Cl)cc1` [4-Chloro-N-[3-(1H-imidazol-1-yl)propyl]benzenesulfonamide], the inhibition at 100 µM on thromboxane synthetase (setting [5]) is 99%. Also, the “MABP in mm Hg” value in series [1] is listed as 120 mm Hg.
Take `CCCCCC(O)/C=C/C1OC2CC(O2)C1C/C=C\CCCC(=O)O` (centres unmarked) [TXA2]: the “effect of injection into coronary arteries (in words)” value in series [2] is “causes myocardial ischemia and subendocardial necrosis”; in series [3] it was “causes myocardial ischemia and subendocardial necrosis”.
Regarding `CCCCC[C@H](O)/C=C/[C@@H]1[C@H]2C/C(=C/CCCC(=O)O)O[C@H]2C[C@H]1O` [PGI2], the “effect on ischemic myocardium (in words)” value in series [4] was “beneficial effects”.
`COc1ccc(S(=O)(=O)NCCCCn2ccnc2)cc1` [N-[4-(1H-imidazol-1-yl)butyl]-4-methoxybenzenesulfonamide]: the inhibition at 100 µM on thromboxane synthetase (setting [5]) amounted to 97%. Also, the “MABP in mm Hg” value in series [1] is given as 134 mm Hg.
On to `CC(=O)Nc1ccc(S(=O)(=O)NCCCn2ccnc2)cc1` [N-[4-[[[3-(1H-Imidazol-1-yl)propyl]amino]sulfonyl]phenyl]acetamide], for which the inhibition at 100 µM at thromboxane synthetase (setting [5]) was 73%. Moreover, in series [1], the “MABP in mm Hg” value is 131 mm Hg.
On to `O=S(=O)(NCCCCCn1ccnc1)c1ccc(Cl)cc1` [4-Chloro-N-[5-(1H-imidazol-1-yl)pentyl]benzenesulfonamide hydrochloride], for which the inhibition at 100 µM at thromboxane synthetase (setting [5]) was determined as 97%.
